Key:
Format in all cases: in vivo
[1] = tested on: Housefly [Musca domestica]; assay: Housefly insecticidal test (HF); settings: per 25 female houseflies, 48 hours
[2] = tested on: Tobacco Budworm [Heliothis virescens (Fabricius)]; assay: Tobacco budworm contact test (TBW-C); settings: second-instar larvae, 5 days, percent in solution
Method: The compounds in Tables 1 and 2 above were tested for insecticidal activity using the following testing procedures. LC50 values, based on the results of these tests and calculated according to dosage-mortality curves, are expressed in Table 3.
Tobacco Budworm [Heliothis virescens (Fabricius)]
(a) Contact: Test compounds were diluted in a 50-50 acetonewater solution. Cotton (Gossypium sp.) cotyledons were immersed in the test solutions for 2-3 seconds and placed on a wire screen to dry. The dried leaves were placed in petri dishes containing a moistened piece of filter paper and infested with 5 second-instar tobacco budworm larvae. The dishes were placed in a high humidity chamber for 5 days, and percent mortality of the larvae recorded. Test concentrations ranged from 0.1% downward. The LC-50 values are expressed below in Table 3 under the heading "TBW-C" in terms of percent of the test compound in the solution.

[3] = tested on: Tobacco Budworm [Heliothis virescens (Fabricius)] eggs; assay: Tobacco budworm egg test (TBW-E); settings: percent in solution
[4] = tested on: Cabbage Looper [Trichoplusia ni (Hubner)]; assay: Cabbage looper test (CL); settings: second-instar larvae, 3-5 days, percent in solution
[5] = tested on: Aster Leafhopper [Macrosteles fascifrens (Stal)]; assay: Aster leafhopper test (LH); settings: adults/nymphs, 48 hours, percent in solution
[6] = tested on: Maize weevil [Sitophilus Zeamais (Motschulsky)]; assay: Maize weevil test (MW); settings: adult weevils, treated corn seeds, 48 hours, percent in solution
Procedure, shortened: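 Adult weevils (10) were placed with four corn seeds that had been dipped 2-3 s in compound dissolved in 50:50 acetone:water, then dried, and held at about 25° C. Mortality was scored at 48 h. LC50 was taken from dosage-mortality curves and expressed as percent compound in solution, from a 0.01% top concentration.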

Row | Compound | LC50 HF [1] | LC50 TBW C [2] | LC50 TBW E [3] | LC50 CL [4] | LC50 LH [5] | LC50 MW [6]
1 | CC(C)C(=Nc1c(F)c(F)c(F)c(F)c1F)OCc1cccc(Oc2ccccc2)c1 [Compound 51] | 25 µg | 0.0025% | 0.067% | 0.001% | 0.001% | 
2 | CC(C)(C)C(=Nc1ccc(Cl)cc1)OCc1cccc(Oc2ccccc2)c1 [Compound 30] | > 100 µg | 0.01% | > 0.1% | 0.003% | > 0.05% | > 0.01%
3 | C=C(C)C(=Nc1ccc(C(F)(F)F)cc1)OCc1ccc(F)c(Oc2ccc(Cl)cc2)c1 [Compound 432] | < 100 µg | < 0.1% | 0.032% | 0.0012% |  | > 0.01%
4 | CC(C)C(=Nc1ccc(F)c(Br)c1)OCc1cccc(Oc2ccc(F)cc2)c1 [Compound 253] | 10 µg | 0.0005% | > 0.1% | 0.00013% | 0.003% | > 0.01%
5 | CC(C)C(=Nc1ccc(Cl)c(Cl)c1)OCc1cccc(Oc2ccc(Cl)cc2)n1 [Compound 523] | 22 µg | 0.0002% | > 0.1% | 0.00015% | > 0.05% | > 0.01%
6 | C#CCc1c(F)c(F)c(COC(=Nc2ccc(F)c(Cl)c2)C(C)C)c(F)c1F [Compound 520] | 5.5 µg | 0.00075% | > 0.1% | > 0.1% | 0.0003% | 0.0042%
7 | Cc1c(F)cccc1N=C(OCc1cccc(Oc2ccccc2)c1)C(C)C [Compound 73] | 25 µg | 0.005% | 0.025% | 0.004% |  | 
8 | Fc1ccc(N=C(OCc2cccc(Oc3ccccc3)c2)C(Cl)Cl)cc1 [Compound 44] | 3 µg | < 0.1% | 0.06% |  |  | 
9 | COc1ccccc1N=C(OCc1cccc(Oc2ccccc2)c1)C(C)C [Compound 145] | > 100 µg | 0.05% | > 0.1% | 0.05% | > 0.05% | 
10 | CC(C)C(=Nc1cccc(C(F)(F)F)c1)OCc1cccc(Oc2ccc(F)cc2)c1 [Compound 202] | 18 µg | 0.0007% | > 0.1% | 0.00024% | 0.0003% | > 0.01%
11 | CCC(C)C(=Nc1ccc(F)c(Cl)c1)OCc1cccc(Oc2ccc(F)cc2)c1 (stereo not shown) [Compound 210] | 35 µg | 0.0015% | 0.045% | 0.00028% |  | > 0.01%
12 | CC(C)(C)C(=Nc1ccc(F)c(Cl)c1)OCc1cccc(Oc2ccc(F)cc2)c1 [Compound 204] | > 100 µg | 0.004% | > 0.1% | 0.0023% |  | > 0.01%
13 | COc1ccc(N=C(OCc2cccc(Oc3ccccc3)c2)C(C)C)cc1Cl [Compound 95] | 10 µg | 0.004% | 0.025% | 0.0025% |  | 
14 | CC(C)(C)c1ccc(N=C(OCc2cccc(Oc3ccccc3)c2)C(Cl)Cl)cc1 [Compound 140] | > 100 µg | > 0.1% | > 0.1% | < 0.1% |  | 
15 | CC(C)C(=Nc1cccc(C(F)(F)F)c1)OCc1ccc(F)c(Oc2ccc(Cl)cc2)c1 [Compound 266] | 10 µg | 0.0007% | 0.06% | 0.00016% |  | 
16 | CC(C)C(=Nc1ccc2c(c1)OC(C)(C)O2)OCc1cccc(Oc2ccc(F)cc2)c1 [Compound 219] | 50 µg | 0.004% | 0.027% | 0.00025% |  | > 0.01%
17 | COc1ccc(N=C(OCc2cccc(Oc3ccccc3)c2)C(C)C)c(OC)c1 [Compound 146] | 40 µg | 0.025% | > 0.1% | 0.017% |  | 
18 | ClC(Cl)C(=Nc1ccccc1)OCc1cccc(Oc2ccccc2)c1 [Compound 41] | 4.5 µg | 0.0035% | 0.04% | 0.015% |  | 
19 | Cc1cc(Cl)ccc1N=C(OCc1cccc(Oc2ccccc2)c1)C(C)C [Compound 96] | 35 µg | 0.0025% | 0.025% | 0.003% |  | 
20 | Cc1ccc(F)cc1N=C(OCc1cccc(Oc2ccccc2)c1)C(C)C [Compound 74] | 25 µg | 0.0025% | 0.025% | 0.005% |  | 
21 | CC(=O)c1ccc(N=C(OCc2cccc(Oc3ccccc3)c2)C(C)C)cc1 [Compound 147] | 10 µg | 0.0075% | > 0.1% | 0.01% |  | 
22 | C#CCc1c(F)c(F)c(COC(=Nc2ccc3c(c2)OCO3)C(C)C)c(F)c1F [Compound 547] | < 100 µg |  | 0.05% | 0.0005% | < 0.05% | > 0.01%
23 | CC(C)C(=Nc1ccccc1C(F)(F)F)OCc1cccc(Oc2ccccc2)c1 [Compound 72] | > 100 µg |  | > 0.1% | 0.08% | > 0.05% | > 0.01%
24 | CC(C)C(=Nc1cc(F)cc(F)c1)OCc1cccc(Oc2ccc(F)cc2)c1 [Compound 199] | 8 µg | 0.003% | > 0.1% | 0.0006% |  | > 0.01%
25 | CC(C)C(=Nc1ccc(F)c(Cl)c1)OCc1cccc(OCc2ccc(F)cc2)c1 [Compound 490] | > 100 µg |  | > 0.1% | 0.0045% | > 0.05% | > 0.01%
26 | CC(C)(F)C(=Nc1ccc(F)c(Cl)c1)OCc1cccc(Oc2ccc(F)cc2F)c1 [Compound 315] | > 100 µg |  | > 0.1% | 0.002% | > 0.05% | > 0.01%
27 | CC(C)C(=Nc1cccc(Br)c1)OCc1cccc(Oc2ccccc2)c1 [Compound 128] | 4.5 µg |  | 0.037% | 0.005% | 0.003% | > 0.01%
28 | Cc1ccc(N=C(OCc2cccc(Oc3ccccc3)c2)C(C)C)cc1F [Compound 75] | 5 µg | 0.0075% | 0.01% | 0.0025% | 0.0008% | 
29 | Cc1cccc(N=C(OCc2cccc(Oc3ccccc3)c2)C(C)C)c1 [Compound 155] | 9 µg |  | 0.06% | 0.004% | > 0.05% | > 0.01%

From patent US5089623A, “Certain imidate insecticides” (Imperial Chemical Industries Plc, priority 1990, dated 1992)
